According to the Kinase Knowledgebase extract (Sharma et al. 2016):

Columns and labels:
[1] = target: PIK3CG (human) (UniProt P48736); assay: Assessment of PIK3CG Kinase Activity
[2] = target: PIK3CD (Human) (UniProt O00329); assay: Assessment of PIK3CD Kinase Activity
[3] = target: PIK3CA (human) (UniProt P42336); assay: Assessment of PIK3CA Kinase Activity
Chain of PIK3CA (human) (P42336 whole entry, looked up): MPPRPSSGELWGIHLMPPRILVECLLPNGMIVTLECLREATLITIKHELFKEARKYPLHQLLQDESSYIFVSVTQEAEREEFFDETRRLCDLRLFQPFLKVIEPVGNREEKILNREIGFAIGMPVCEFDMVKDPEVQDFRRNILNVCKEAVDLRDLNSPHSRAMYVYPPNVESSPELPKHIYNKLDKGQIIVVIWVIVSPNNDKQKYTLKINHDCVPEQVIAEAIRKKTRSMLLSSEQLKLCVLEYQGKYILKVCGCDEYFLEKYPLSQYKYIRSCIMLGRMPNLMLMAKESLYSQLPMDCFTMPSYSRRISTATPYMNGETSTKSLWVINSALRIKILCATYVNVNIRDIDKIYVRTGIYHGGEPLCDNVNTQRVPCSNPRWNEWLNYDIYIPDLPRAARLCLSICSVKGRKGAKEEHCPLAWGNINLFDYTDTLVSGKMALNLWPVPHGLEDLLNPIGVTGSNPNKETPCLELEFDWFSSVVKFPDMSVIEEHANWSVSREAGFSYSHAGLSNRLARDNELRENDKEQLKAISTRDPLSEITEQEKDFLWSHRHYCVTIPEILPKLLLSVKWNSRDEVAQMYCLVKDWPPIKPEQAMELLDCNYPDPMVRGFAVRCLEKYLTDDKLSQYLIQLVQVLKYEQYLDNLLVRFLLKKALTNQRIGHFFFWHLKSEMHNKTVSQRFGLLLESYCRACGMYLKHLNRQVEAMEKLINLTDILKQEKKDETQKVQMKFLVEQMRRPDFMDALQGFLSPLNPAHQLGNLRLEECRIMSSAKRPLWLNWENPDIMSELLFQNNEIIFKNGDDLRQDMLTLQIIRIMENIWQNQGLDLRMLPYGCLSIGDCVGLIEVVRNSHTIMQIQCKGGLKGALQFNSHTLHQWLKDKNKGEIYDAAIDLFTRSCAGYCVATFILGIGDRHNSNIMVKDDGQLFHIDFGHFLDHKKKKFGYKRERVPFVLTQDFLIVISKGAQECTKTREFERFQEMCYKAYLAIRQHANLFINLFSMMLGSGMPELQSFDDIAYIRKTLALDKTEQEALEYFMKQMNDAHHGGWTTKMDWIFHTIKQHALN

Chain of PIK3CG (human) (P48736 whole entry, looked up): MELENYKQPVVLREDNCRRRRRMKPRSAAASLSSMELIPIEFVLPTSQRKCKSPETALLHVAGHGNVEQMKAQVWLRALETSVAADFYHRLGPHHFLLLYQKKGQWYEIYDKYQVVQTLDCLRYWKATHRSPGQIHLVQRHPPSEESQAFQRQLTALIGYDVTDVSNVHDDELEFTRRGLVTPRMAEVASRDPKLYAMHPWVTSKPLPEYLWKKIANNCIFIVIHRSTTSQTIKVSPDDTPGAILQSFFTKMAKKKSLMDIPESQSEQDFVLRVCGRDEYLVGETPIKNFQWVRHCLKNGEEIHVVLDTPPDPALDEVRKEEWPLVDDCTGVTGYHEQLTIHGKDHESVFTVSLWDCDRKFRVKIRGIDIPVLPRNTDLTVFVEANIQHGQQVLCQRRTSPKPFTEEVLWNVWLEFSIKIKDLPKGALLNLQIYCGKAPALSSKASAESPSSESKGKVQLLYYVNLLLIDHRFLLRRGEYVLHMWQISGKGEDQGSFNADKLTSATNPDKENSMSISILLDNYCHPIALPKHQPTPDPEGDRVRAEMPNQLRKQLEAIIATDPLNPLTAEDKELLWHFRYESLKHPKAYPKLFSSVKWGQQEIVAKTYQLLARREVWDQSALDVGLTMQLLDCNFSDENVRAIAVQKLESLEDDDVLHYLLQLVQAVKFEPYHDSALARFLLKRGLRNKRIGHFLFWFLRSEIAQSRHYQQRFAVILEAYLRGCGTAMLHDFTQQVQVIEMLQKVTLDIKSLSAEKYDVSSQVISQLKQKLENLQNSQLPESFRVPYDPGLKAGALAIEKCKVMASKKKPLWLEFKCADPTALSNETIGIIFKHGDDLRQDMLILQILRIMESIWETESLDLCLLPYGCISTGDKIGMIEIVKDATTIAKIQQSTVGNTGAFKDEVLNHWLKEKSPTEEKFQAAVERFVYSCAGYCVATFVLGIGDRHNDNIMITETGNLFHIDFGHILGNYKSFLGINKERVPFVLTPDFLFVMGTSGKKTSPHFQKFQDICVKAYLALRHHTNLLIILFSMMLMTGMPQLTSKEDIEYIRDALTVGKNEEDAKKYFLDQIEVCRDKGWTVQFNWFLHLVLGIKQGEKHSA
Chain of PIK3CD (Human) (O00329 whole entry, looked up): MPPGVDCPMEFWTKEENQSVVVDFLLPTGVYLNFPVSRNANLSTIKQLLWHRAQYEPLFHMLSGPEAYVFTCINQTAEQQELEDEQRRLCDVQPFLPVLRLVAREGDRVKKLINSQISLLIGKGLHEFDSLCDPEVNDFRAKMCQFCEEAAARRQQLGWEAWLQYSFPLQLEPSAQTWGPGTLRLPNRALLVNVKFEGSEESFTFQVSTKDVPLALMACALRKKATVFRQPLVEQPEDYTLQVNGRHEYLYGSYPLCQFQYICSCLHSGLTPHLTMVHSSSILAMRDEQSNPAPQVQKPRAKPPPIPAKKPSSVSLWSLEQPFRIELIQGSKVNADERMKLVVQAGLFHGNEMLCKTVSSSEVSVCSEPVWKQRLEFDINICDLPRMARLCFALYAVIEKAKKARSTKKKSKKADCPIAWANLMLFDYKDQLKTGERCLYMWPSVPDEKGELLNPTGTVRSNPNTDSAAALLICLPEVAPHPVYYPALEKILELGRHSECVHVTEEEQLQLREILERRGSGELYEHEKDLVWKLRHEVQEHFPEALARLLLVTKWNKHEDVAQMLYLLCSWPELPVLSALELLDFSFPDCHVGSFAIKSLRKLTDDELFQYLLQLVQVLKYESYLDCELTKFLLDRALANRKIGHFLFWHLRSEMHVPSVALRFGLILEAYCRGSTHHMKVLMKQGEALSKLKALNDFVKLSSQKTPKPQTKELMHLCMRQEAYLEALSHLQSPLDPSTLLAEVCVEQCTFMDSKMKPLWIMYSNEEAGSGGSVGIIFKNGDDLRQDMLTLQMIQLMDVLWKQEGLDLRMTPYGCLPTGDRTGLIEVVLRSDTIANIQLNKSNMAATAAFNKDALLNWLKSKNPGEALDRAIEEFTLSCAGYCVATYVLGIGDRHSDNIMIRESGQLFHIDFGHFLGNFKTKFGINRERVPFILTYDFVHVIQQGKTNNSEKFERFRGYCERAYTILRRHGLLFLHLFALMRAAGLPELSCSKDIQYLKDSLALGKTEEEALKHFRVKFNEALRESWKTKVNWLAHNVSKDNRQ

`CCn1cnc(CCNC(=O)Nc2nc(C)c(-c3ccc(S(C)(=O)=O)c(F)c3)s2)c1` gave an IC50 [1] of 0.038 µM, an IC50 [2] of 2.15 µM and an IC50 [3] of 0.934 µM.

Molecule `Cc1nc(NC(=O)NCCC(=O)OC(C)(C)C)sc1-c1ccc(S(C)(=O)=O)c(F)c1` has an IC50 [1] of 0.016 µM, an IC50 [2] of 0.626 µM and an IC50 [3] of 3.02 µM.

Molecule `Cc1nc(NC(=O)NCCS(C)(=O)=O)sc1-c1ccc(F)c(S(C)(=O)=O)c1` has an IC50 [1] of 0.177 µM, an IC50 [2] of 0.637 µM and an IC50 [3] of 0.218 µM.

With `Cc1nc(NC(=O)NCCO)sc1-c1ccc(S(C)(=O)=O)c(C(F)(F)F)c1` the IC50 [1] was 0.047 µM, the IC50 [2] was 0.18 µM and the IC50 [3] was 0.035 µM.

Molecule `Cc1nc(NC(=O)NCCc2cn(C(C)C)cn2)sc1-c1ccc(S(C)(=O)=O)c(F)c1` has an IC50 [1] of 0.044 µM, an IC50 [2] of 0.42 µM and an IC50 [3] of 1.5 µM.

With `Cc1nc(NC(=O)N2CC(C#N)C2)sc1-c1ccc(S(C)(=O)=O)c(F)c1` the IC50 [1] was 0.195 µM and the IC50 [3] was 0.19 µM.

In the case of `CCc1cnc(CCNC(=O)Nc2nc(C)c(-c3ccc(S(C)(=O)=O)c(-n4ccnc4)c3)s2)o1`, the IC50 [1] is reported as 0.032 µM, the IC50 [2] is reported as 0.17 µM and the IC50 [3] is reported as 0.156 µM.

`Cc1nc(NC(=O)NCCC(=O)OC(C)(C)C)sc1-c1ccc(S(C)(=O)=O)c(C(F)(F)F)c1` gave an IC50 [1] of 0.213 µM, an IC50 [2] of 2.62 µM and an IC50 [3] of 2.06 µM.

Work on `Cc1nc(NC(=O)NCC(=O)N(C)C)sc1-c1ccc(S(C)(=O)=O)c(F)c1` yielded an IC50 [1] of 0.012 µM, an IC50 [2] of 0.028 µM and an IC50 [3] of 0.009 µM.

`CCc1nnc(CCNC(=O)Nc2nc(C)c(-c3ccc(S(C)(=O)=O)c(F)c3)s2)o1` was tested, and the IC50 [1] was 0.074 µM, the IC50 [2] was 3.79 µM and the IC50 [3] was 0.839 µM.
